We go through one molecule from ChEMBL document CHEMBL3392998 (J Med Chem, 2014).

In one experiment the target is Protease (Human immunodeficiency virus 1, UniProt Q9YQ12). In words: Inhibition of wild-type HIV-1 protease using fluorogenic peptide substrate incubated for 30 mins prior to substrate addition measured after 10 mins by FRET assay.
The target of experiment [1] is Human immunodeficiency virus type 1 protease (Human immunodeficiency virus 1, UniProt Q72874, A71V/G73S/I84V/L10I/L63P/L90M). In words: Inhibition of multidrug resistant HIV-1 protease L10I/L63P/A71V/G73S/I84V/L90M mutant using fluorogenic peptide substrate incubated for 30 mins prior to substrate addition measured after 10 mins by FRET assay.
Sequence of Human immunodeficiency virus type 1 protease (Q72874 entry or part of it A71V/G73S/I84V/L10I/L63P/L90M): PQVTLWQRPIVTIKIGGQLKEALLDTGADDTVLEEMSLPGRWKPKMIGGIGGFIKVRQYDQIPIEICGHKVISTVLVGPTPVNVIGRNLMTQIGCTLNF

Sequence of Protease (Q9YQ12 whole entry): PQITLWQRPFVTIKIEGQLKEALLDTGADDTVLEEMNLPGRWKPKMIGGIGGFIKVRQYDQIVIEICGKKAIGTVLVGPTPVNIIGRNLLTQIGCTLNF

Take `O=C1c2cccc([N+](=O)[O-])c2C(=O)N1c1ccc2[nH]c(=S)sc2c1`: the inhibitory constant (Ki) came to 96 µM on Protease and 91 µM in experiment [1].
